These results are taken from patent US4522803A (priority 1983, dated 1985).

Series [1] relates to B. canis. Also noted: species or system B. canis ATCC 23365. The note with it: in vivo.
Series [2] has as its system B. canis. The series is classed as cell-based. The settings on record: suspension culture.
Series [3] deals with B. canis. Also noted: species or system B. canis ATCC 23365. The note with it: in vivo, ip, 10 mg/kg.
The subject of the next series is B. canis antigen. The note with it: in vivo.
Series [4] deals with B. abortus. Details: species or system B. abortus ATCC 23451. The settings on record: in vivo, ip, 10 mg/kg.
The test system of series [5] is B. canis. It counts as cell-based.
Series [6] concerns B. canis. Also noted: species or system B. canis ATCC 23365. The note with it: in vivo, ip, 10 mg/kg. This is another data set of the same source.
The test system of another series is M. bovis. It counts as in vivo.
Series [7] relates to B. abortus. The series is classed as cell-based. The note with it: mean ± SD of 12 replicates; streptomycin 1 mg/ml, 24 hours.
The test system of series [8] is B. canis. Details: species or system B. canis ATCC 23365. The settings on record: in vivo. The source holds these as a separate data set.
Series [9] in a line: Retention and sustained release of gentamycin after topical application in eyes of mice.

Where two headings read alike, the source gives them in different places.

As for `CN[C@@H]1[C@H](O[C@H]2[C@H](O[C@H]3[C@H](O)[C@@H](O)[C@H](NC(=N)N)[C@@H](O)[C@@H]3NC(=N)N)O[C@@H](C)[C@]2(O)CO)O[C@@H](CO)[C@H](O)[C@H]1O` [Dihydrostreptomycin], the “Colony-Forming Units B. Canis Per Spleen” value in the series on B. canis [1] was 1.13 ± 0.30 × 10^5. Besides, the “Killing of B. canis in vitro” value in the series on B. canis [2] is “kill B. canis in vitro”.
As to `[H]/N=C(/N)N[C@H]1[C@H](O)[C@@H](O)[C@H](O[C@@H]2O[C@@H](C)[C@](O)(C=O)[C@H]2O[C@@H]2O[C@@H](CO)[C@H](O)[C@@H](O)[C@@H]2NC)[C@@H](N/C(N)=N\[H])[C@@H]1O` [Streptomycin], the “Blood and vaginal culture outcome” value in the series with B. canis [3] was “remained culture positive for blood and vaginal cultures during post-treatment periods”. Further, in the series on B. canis antigen, the “M (2-mercaptoethanol tube agglutination test), reciprocal of serum titer” value is listed as 0 × 10^2. The “R (rapid slide agglutination test), reciprocal of serum titer” value in the series on B. canis antigen is reported as 0 × 10^2. Also, the “Serum antibody against B. canis” value in the series on B. canis antigen (ip, 10 mg/kg) was “developed detectable serum titers against B. canis antigens by day 21 post-inoculation”. Further, the “Surviving B. abortus in spleen” value in the series on B. abortus [4] is reported as “viable B. abortus bacteria were be identified”. In addition, the “Colony-Forming Units B. Canis Per Spleen” value in the series on B. canis [1] is recorded as 1.01 ± 0.17 × 10^5. Besides, the “Colony-forming units of intracellular B. canis” value with B. canis [5] is given as 3.11 + 0.40 × 10^3 CFU. Besides, in the series on B. canis [2], the “Killing of B. canis in vitro” value is “kill B. canis in vitro”. In addition, the “Surviving B. canis per organ” value in the series on B. canis [6] is “viable B. canis organisms could be isolated in all tissues sampled”. Moreover, the “M. Bovis cultures positive” value with M. bovis (UV-radiated, day 3 post-treatment) is given as 3/5; with M. bovis (UV-radiated, day 5 post-treatment) it was 4/5; with M. bovis (non-radiated, day 3 post-treatment) it was 2/5; in the series with M. bovis (non-radiated, day 5 post-treatment), 2/5. The “Number of mice with corneal opacity score 0” value in the series on M. bovis (UV-radiated, post-treatment) came out at 14; with M. bovis (UV-radiated, pre-treatment) it was 0; in the series on M. bovis (non-radiated, post-treatment), 18; in the series with M. bovis (non-radiated, pre-treatment), 18. For the same molecule, the “Number of mice with corneal opacity score 1 (loss of normal luster)” value with M. bovis (UV-radiated, post-treatment) is reported as 3; in the series with M. bovis (UV-radiated, pre-treatment), 4; with M. bovis (non-radiated, post-treatment), 2; in the series on M. bovis (non-radiated, pre-treatment) it was 1. In addition, the “Number of mice with corneal opacity score 2 (small foci of opacity)” value in the series on M. bovis (UV-radiated, post-treatment) is on record as 2; in the series with M. bovis (UV-radiated, pre-treatment), 9; with M. bovis (non-radiated, post-treatment) it was 0; in the series with M. bovis (non-radiated, pre-treatment) it was 1. The “Number of mice with corneal opacity score 3 (partial opacity)” value came out at 1 with M. bovis (UV-radiated, post-treatment); 7 in the series on M. bovis (UV-radiated, pre-treatment); 0 with M. bovis (non-radiated, post-treatment); 0 in the series with M. bovis (non-radiated, pre-treatment). In addition, the “Number of mice with corneal opacity score 4 (total opacity)” value was determined as 0 in the series on M. bovis (UV-radiated, post-treatment); 0 in the series on M. bovis (UV-radiated, pre-treatment); 0 in the series with M. bovis (non-radiated, post-treatment); 0 in the series with M. bovis (non-radiated, pre-treatment). In addition, the “Colony-forming units of intracellular B. abortus” value in the series on B. abortus [7] is 3.3 ± 0.25 × 10^4 CFU. Also, in the series on B. canis [8], the “Surviving B. canis in spleens” value is listed as “very little reduction in surviving B. canis in spleens was observed”.
Take Gentamycin: the “Killing of B. canis in vitro” value with B. canis [2] is on record as “kill B. canis in vitro”. The “Gentamycin retained in eyelid tissue” value in series [9] (4 hours, topical) is reported as “less than 5%”. The Gentamycin sulfate cleared in [9] (within a 4 hour period) is recorded as 95%.
